Patent publication EP0263213B1, “C20 Through C26 amino steroids” (THE UPJOHN COMPANY, priority 1986, dated 1988)
Where a name gives a salt, the structure may show the parent alone.

Legend:
rat brain synaptosomes [1] = test: Conjugated Diene Formation Assay; assay type: biochemical; settings: active = inhibits conjugated diene formation by 50% or more; 100 »M (or less) of drug, 100 »M hydrogen peroxide, 200 »M ferrous ammonium sulfate
Description: The formation of conjugated dienes as assayed by Braughler, J. Neurochem., 44, 1282 (1985), Bucher, Fund. Applied Tox., 3, 222 (1983) and Tein, Arch. Biochem. Biophy., 216, 142 (1982) is a standard pharmacological laboratory procedure useful for identifying compounds which inhibit lipid peroxidation. Since lipid peroxidation is involved in the pathophysiology of central nervous system trauma, compounds which inhibit conjugated diene formation are useful in treating the conditions listed below.
44, 1282 (1985). Synaptosomal suspension (10 »l) is added to 1 ml of physiological (normal) saline containing 1 % Lubrol PX (Sigma Chemical Co. St. Louis, Mo.), 100 »M hydrogen peroxide and 100 »M (or less) of the drug to be tested prepared in either absolute ethanol or water depending upon solubility. The reaction is started by the rapid addition of 200 »M ferrous ammonium sulfate is prepared in argon-purged water. The sample is rapidly mixed and the change in absorbance at 232nm is followied in a Gilford Response Spectrophotometer equipped with a rapid sampler. Due to the rapidity of the reaction, rapid addition of the iron, rapid mixing and sampling are obligatory to the accuracy of the assay. For best results absorbance readings of one/sec should be started within 5 sec following the addition of iron. The initial linear rate of absorbance change during the first 30 sec of reaction are compared with the rate of a reaction containing all reagents except synaptosomes. The difference in rates is the rate of conjugated diene formation. Rates with drug are compared to rates obtained in the absence of drug and the % inhibition is calculated. A compound that inhibits conjugated diene formation by 50% or more is considered to be "active".

arachidonic acid = test: Arachidonic Acid Antagonism Assay (AAAA); assay type: in vivo; settings: male CF-1 mice; for arachidonic acid antagonism: active = elevates the LD50 of sodium arachidonate outside the 95% confidence interval of the control LD50, test compound IV 15 minutes before
Method: Since these metabolites contribute to the pathological problems associated with stroke, spinal trauma and head injury, compounds which antagonize arachidonic acid are useful in treating stroke, spinal trauma and head injury.
While not necessary to determine arachidonic acid antagonism, the above assay has been modified as follows: Charles River male CF-1 mice weighing 18-22g are treated IV with the test compound dissolved in 1.0% Tween-80 and 0.1% hydrochloric acid in distilled water, 0.2 ml total volume. Fifteen minutes later sodium arachidonate (90% pure) in physiological (normal) saline is injected into the tail vein. The LD₅₀ is measured using the Spearman-Karber method with a log dose interval of 0.05 (N=6). Compounds which elevate the LD₅₀ outside of the 95% confidence interval of the control LD₅₀ are considered to be "active".

rat brain synaptosomes [2] = test: Malonyldialdehyde (MDA) Formation Assay; assay type: biochemical; settings: active = inhibits MDA formation by 50% or more at 200»M or less; 10 min at 37°, pH 7.0, 150 uM Fe+++ and 50 uM Fe++
Method: Since lipid peroxidation is involved in the pathophysiology of central nervous system trauma, compounds which inhibit MDA formation are useful in treating the conditions listed below.
While not necessary to determine MDA formation, the above assays have been modified as follows: rat brain synaptosomes are prepared as described in the Example about the conjugated diene assay, except that the final wash of the synaptosomes and final suspension are in physiological (normal) saline in which the pH has been adjusted to 7.0. The synaptosomes are incubated for 10 min at 37° in physiological (normal) saline pH 7.0 (total volume = 100 ul) containing; 10 ul synaptosomal suspension, 10% DMSO plus or minus drug, 150 uM Fe⁺⁺⁺ and 50 uM Fe++. The incubation is started by the rapid addition of iron to the otherwise complete reaction. The iron solutions are prepared fresh as ferric chloride and ferrous ammonium sulfate in argon-purged water. Following the 10 min incubation, the reaction is stopped by the addition of 500 ul ice-cold 12% trichloroacetic acid prepared in 0.5 N hydrochoric acid. Water (300 ul) is then added along with 100 ul of freshly prepared thiobarbituric acid (3.3% in 0.5N sodium hydroxide) and 10 ul of 5mM desferrioxamine. The sample is then heated in a boiling water bath for 20 minutes. The samples are cooled and centrifuged for 15 minutes at 1500 xg and the absorbance of the supernatant fraction is read at 532 nm. The % inhibition of MDA formation is calculated by dividing the absorbance of sample containing drug by the absorbance of samples incubated without drug. Reaction blanks are samples incubated in the absence of iron. A compound that inhibits MDA formation by 50% or more at a concentration of 200»M or less is considered "active".

Row | Compound | arachidonic acid antagonism (arachidonic acid) | inhibition of MDA formation (rat brain synaptosomes [2]) | also measured
1 | CCN(CC)c1cc(N2CCN(CC(=O)[C@@]3(O)CC[C@H]4[C@@H]5CCC6=CC(=O)CC[C@]6(C)C5=CC[C@@]43C)CC2)nc(N)n1 [Example 4, 21-[4-[2-Amino-6-(diethylamino)-4-pyrimidinyl]-1-piperazinyl]-17α-hydroxypregna-4,9(11)-diene-3,20-dione] | demonstrate arachidonic acid antagonism |  | inhibition of conjugated diene formation (rat brain synaptosomes [1]): demonstrate such activity by inhibition of conjugated dienes
2 | C[C@]12CCC(=O)C=C1CC[C@@H]1C2=CC[C@@]2(C)[C@H]1CC[C@]2(O)C(=O)CN1CCC(O)(c2ccc(C(F)(F)F)cc2)CC1 [Example 5, 17α-Hydroxy-21-[4-hydroxy-4-(4-trifluoromethyl)phenyl-1-piperidinyl]pregna-4,9(11)-diene-3,20-dione] |  |  | inhibition of conjugated diene formation (rat brain synaptosomes [1]): demonstrate such activity by inhibition of conjugated dienes
3 | CN1CCN(c2cc(N3CCN(CC(=O)[C@@]4(O)CC[C@H]5[C@@H]6CCC7=CC(=O)CC[C@]7(C)C6=CC[C@@]54C)CC3)nc(N3CCN(C)CC3)n2)CC1.CS(=O)(=O)O.O [Example 19, 17α-Hydroxy-21-[4-[2,6-bis(4-methyl-1-piperazinyl)-4-pyrimidinyl]-1-piperazinyl]pregna-4,9(11)diene-3,20-dione methanesulfonate hydrate] | demonstrate arachidonic acid antagonism |  | % of Control LD₅₀ 100mg/kg (arachidonic acid; 100mg/kg, LD50 of sodium arachidonate, IV): 141%
4 | C[C@H]1C[C@@H]2[C@H]([C@@H](O)C[C@@]3(C)[C@H]2CC[C@]3(O)C(=O)CN2CCN(c3ccccn3)CC2)[C@@]2(C)C=CC(=O)C=C12 [Example 21, 11β-17α-dihydroxy-6α-methyl-21-[4-(2-pyridinyl)-1-piperazinyl]pregna-1,4-diene-3,20-dione] | demonstrate arachidonic acid antagonism |  | 
5 | COc1cccc(N2CCN(CC(=O)[C@@]3(O)CC[C@H]4[C@@H]5CCC6=CC(=O)CC[C@]6(C)C5=CC[C@@]43C)CC2)n1.CS(=O)(=O)O [Example 22, 17α-hydroxy-21-[4-(6-methoxy-2-pyridinyl)-1-piperazinyl]pregna-4,9(11)-diene-3,20-dione monomethanesulfonate] | demonstrate arachidonic acid antagonism |  | 
6 | C[C@]12C=CC(=O)C=C1CC[C@@H]1[C@@H]2[C@@H](O)C[C@@]2(C)[C@H]1CC[C@]2(O)C(=O)CN1CCN(c2ccccn2)CC1 [Example 25, 11β,17α-dihydroxy-21-[4-(2-pyridinyl)-1-piperazinyl]-pregna-1,4-diene-3,20-dione dihydrochloride] | demonstrate arachidonic acid antagonism |  | 
7 | C[C@]12CCC(=O)C=C1CC[C@@H]1[C@@H]2[C@H](O)C[C@@]2(C)[C@H]1CC[C@]2(O)C(=O)CN1CCN(c2ccc(F)cc2)CC1 [Example 29, 21-[4-(4-fluorophenyl)-1-piperazinyl]-11α,17α-dihydroxypregn-4-ene-3,20-dione dihydrochloride] | demonstrate arachidonic acid antagonism |  | 
8 | C[C@@H]1C[C@H]2[C@@H]3CCC4=CC(=O)C=C[C@]4(C)[C@H]3[C@H](O)C[C@]2(C)[C@H]1C(=O)CN1CCN(c2cc(N3CCCC3)nc(N3CCCC3)n2)CC1 [Example 84] |  |  | inhibition of conjugated diene formation (rat brain synaptosomes [1]): demonstrate such activity by inhibition of conjugated dienes
9 | C[C@]12CCC(=O)C=C1CC[C@@H]1C2=CC[C@]2(C)[C@@H](CCN3CCN(c4cc(N5CCCC5)nc(N5CCCC5)n4)CC3)CC[C@@H]12.Cl [Example 104, 21-[4-(2,6-Bis(1-pyrrolidinyl)-4-pyrimidinyl)-1-piperazinyl]pregna-4,9(11)-dien-3-one hydrochloride] |  | demonstrate such activity by inhibition of MDA formation | 
10 | C[C@]12CC[C@H]3[C@@H](CCC4=CC(=O)CC[C@@]43C)[C@@H]1CC[C@@H]2CCN1CCN(c2cc(N3CCCC3)nc(N3CCCC3)n2)CC1.Cl [Example 107] |  | demonstrate such activity by inhibition of MDA formation | 
11 | C[C@@]12C(=CC(=O)C[C@@H]1C#N)CC[C@@H]1C2=CC[C@]2(C)[C@@H](CCN3CCN(c4cc(N5CCCC5)nc(N5CCCC5)n4)CC3)CC[C@@H]12.Cl.Cl.Cl.O [Example 110] |  | demonstrate such activity by inhibition of MDA formation | 
12 | C[C@]12C=CC(=O)C=C1CC[C@@H]1C2=CC[C@]2(C)[C@@H](C(=O)CN3CCN(c4cc(N5CCCC5)nc(N5CCCC5)n4)CC3)CC[C@@H]12.Cl.Cl [Example 111] |  |  | inhibition of conjugated diene formation (rat brain synaptosomes [1]): demonstrate such activity by inhibition of conjugated dienes
13 | CC(CN1CCN(c2cc(N3CCCC3)nc(N3CCCC3)n2)CC1)[C@H]1CC[C@H]2[C@@H]3CCC4=CC(=O)C=C[C@]4(C)[C@H]3CC[C@]12C.CS(=O)(=O)O.O (some centres unmarked) [Example 112] |  |  | inhibition of conjugated diene formation (rat brain synaptosomes [1]): demonstrate such activity by inhibition of conjugated dienes
14 | C[C@H]1C[C@H]2[C@@H]3C[C@H](F)C4=CC(=O)CC[C@]4(C)C3=CC[C@]2(C)[C@@]1(O)C(=O)CN1CCN(c2cc(N3CCCC3)nc(N3CCCC3)n2)CC1.Cl.Cl [Example 118] |  | demonstrate such activity by inhibition of MDA formation | 
15 | C[C@@H]1C[C@H]2[C@@H]3CCC4=CC(=O)C=C[C@]4(C)[C@H]3CC[C@]2(C)[C@H]1C(=O)CN1CCN(c2cc(N3CCCC3)nc(N3CCCC3)n2)CC1.Cl.Cl [Example 121] |  | demonstrate such activity by inhibition of MDA formation | 
16 | COc1ccc2c(c1)CC[C@@H]1[C@@H]2CC[C@@]2(C)[C@H]1CC[C@]2(O)C(=O)CN1CCN(c2cc(N3CCCC3)nc(N3CCCC3)n2)CC1 [Example 125] |  | demonstrate such activity by inhibition of MDA formation | 
17 | CCNc1cccnc1N1CCN(CC(=O)[C@H]2[C@H](C)C[C@H]3[C@@H]4CCC5=CC(=O)C=C[C@]5(C)C4=CC[C@@]32C)CC1.Cl [Example 127, 21-[4-[3-(Ethylamino)-2-pyridinyl]piperazinyl]-16α-methylpregna-1,4,9(11)-triene-3,20-dione hydrochloride] |  | demonstrate such activity by inhibition of MDA formation | 
18 | C[C@]12CC[C@@H]3c4ccc(O)cc4CC[C@H]3[C@@H]1CC[C@]2(O)C(=O)CN1CCN(c2cc(N3CCCC3)nc(N3CCCC3)n2)CC1 [Example 129, 3,17α-Dihydroxy-21-[4-[2,6-bis(1-pyrrolidinyl)-4-pyrimidinyl]-1-piperazinyl]-19-norpregna-1,3,5-(10)-trien-20-one (E)-2-butenedioate 1:1 salt] |  | demonstrate such activity by inhibition of MDA formation | 
